Data set [1] has as its system POM121, Nup133, Nup50, FG Nups. In words: SIM imaging of nucleoporins in nuclei isolated from CHMP7 ASO treated iPSNs. The note with it: 5 μM, 2-week exposure. In kind it is cell-based, human. As for the experimental part: C9orf72 repeat ASO: Sense strand targeting G4C2 ASO (619251) (13) was generously provided by Ionis Pharmaceuticals. On day 20 of differentiation, 5 μM sense targeting ASO was added to the culture media. Media was exchanged and ASO replaced on day 22 of differentiation and downstream analyses were performed on day 25 of differentiation. CHMP7 ASO: Non-targeting scrambled control (676630): […] (SEQ ID NO: 2), CHMP7 ASO 1 (1508916): […] (SEQ ID NO: 3), CHMP7 ASO 2 (1508917): […] (SEQ ID NO: 4), and CHMP7 ASO 3 (1508918): […] (SEQ ID NO:14) were generously provided by Ionis Pharmaceuticals. On day 25 of differentiation, ASOs were added to the culture media at concentrations of 1, 5, or 10 μM as indicated in Description of the Figures. Media was exchanged and ASO replaced every 3 days until day 40 of differentiation.
Nuclei were isolated from iPSNs and postmortem human brain and spinal cord tissue using the Nuclei Pure Prep Nuclei Isolation Kit (Sigma Aldrich) following manufacturer protocol as previously described (13). Briefly, iPSN lysates were prepared by rinsing iPSNs with 1×PBS, adding […] supplied lysis buffer supplemented with DTT and Triton X-100 directly to each well, and harvesting iPSNs with a cell scraper. Postmortem brain and spinal cord lysates were prepared by homogenizing 150 mg fresh frozen tissue directly in supplied lysis buffer with a dounce homogenizer. All lysates were transferred to a 50 mL conical tube and vortexed. Sucrose gradients were assembled following manufacturer protocol. A 1.85 M sucrose gradient was used to enrich for neuronal nuclei. Samples were centrifuged at 15,600 rpm and 4° C. using a Swi32T swinging bucket rotor and Beckman ultracentrifuge (Beckman Coulter) for 45 minutes. The supernatant was discarded, and the remaining nuclei pellet was resuspended in 1 mL of supplied nuclei storage buffer to wash the nuclei of any remaining sucrose. Resuspended nuclei were centrifuged at 2500 rpm and 4° C. for 5 minutes. The supernatant was once again discarded, and the resulting nuclei pellet was vortexed in 1 mL of supplied nuclei storage buffer to resuspend for downstream imaging analysis. For western blots, washed nuclei were lysed in RIPA buffer as described below.
Nuclei staining and super resolution imaging was performed as previously described (6). Following nuclei isolation, 10-50 μL of final nuclei/storage buffer suspension was centrifuged onto collagen coated (1 mg/mL; Advanced Biomatrix) slides with a CytoSpin 4 centrifuge (Thermo Fisher Scientific). Nuclei were immediately fixed with 4% PFA for 5 minutes, washed with 1×PBS 3×10 minutes and permeabilized with 1×PBST containing 0.1% Triton X-100 for 15 minutes. Nuclei were then blocked with 10% normal goat serum diluted in 1×PBS for 1 hour at room temperature and incubated in primary antibody diluted in block (10% normal goat serum in 1×PBS) overnight at 4° C. (See Table B for antibody information). After 16-18 hours, nuclei were washed with 1×PBS 3×10 minutes, incubated in secondary antibody diluted in block (10% normal goat serum in 1×PBS) for 1 hour at room temperature (See Table B for antibody information). Nuclei were washed with 1×PBS 3×10 minutes and cover slipped using Prolong Gold Antifade Reagent (Invitrogen) and 18 mm×18 mm 1.5 high tolerance coverslips (MatTek). NeuN or GFP positive nuclei (see Description of the Figures) were identified via microscope eye pieces. A single z section ˜110 nm thick was acquired by widefield imaging to confirm NeuN or GFP positivity. The immunostained Nup or ESCRT-III protein was subsequently imaged by super resolution structured illumination microscopy (SIM) using a Zeiss ELYRA 51. For each image, 5 grid rotations and optimal z sectioning parameters were employed. Following image acquisition, SIM images were reconstructed using default SIM processing parameters with Zeiss Zen Black 2.3 SP1 software. […]

The next data set deals with TDP-43. In words: Immunostaining and confocal imaging for TDP-43 in iPSNs. It is filed as cell-based, human. The note with it: sALS iPSNs; day 46; 3-week treatment. The procedure:
(§1) Non-targeting scrambled control (676630): […] (SEQ ID NO:2), CHMP7 ASO 1 (1508916): […] (SEQ ID NO:3), CHMP7 ASO 2 (1508917): […] (SEQ ID NO:4), and CHMP7 ASO 3 (1508918): […] (SEQ ID NO:14) were generously provided by Ionis Pharmaceuticals. On day 25 of differentiation, ASOs were added to the culture media at concentrations of […] as indicated in Description of the Figures. Media was exchanged and ASO replaced every 3 days until iPSNs were subjected to downstream analyses on day 40 of differentiation for western blot, SIM, and glutamate excitotoxicity and day 46 of differentiation for stathmin-2 qRT-PCR, Ran GTPase localization, and TDP-43 localization.
On day 12 of differentiation, iPSNs were plated in 24 well optical bottom plates (Cellvis). […] Nuclear intensity and N/C ratios were calculated with FIJI as previously described (80). […]

The next data set has as its system iPSNs. The experiment in a line: Glutamate toxicity, propidium iodide (PI) incorporation. It is filed as cell-based, human. As for the experimental part:
On day 12 of differentiation, iPSNs were plated in 24 well optical bottom plates (Cellvis) at a density of 250,000 neurons per well. Neurons were rinsed with 1×PBS and fed with fresh stage 3 media daily remove dead cells and debris until day 25 of differentiation. On day 25 of differentiation, ASO treatment was initiated as described above. Every 3 days, iPSNs were rinsed 3× with 1×PBS and media and ASO were replaced. On day 40 of differentiation, iPSNs were washed with 1×PBS to remove any remaining debris and dead cells. Media was replaced with ACSF (Tocris) containing 0 or 10 μM glutamate (Sigma Aldrich). iPSNs were incubated at 37° C. with 5% CO2 for 4 hours. After 3.5 hours, one drop of NucBlue Live ReadyProbes (Thermo Fisher Scientific) and […] (Thermo Fisher Scientific) and returned to the incubator for 30 mins. iPSNs were imaged in an environmentally controlled chamber with a Zeiss LSM 800 confocal microscope. […] PI and DAPI spots were counted using FIJI.
On day 12 of differentiation, iPSNs were plated in 24 well optical bottom plates (Cellvis) at a density of 250,000 neurons per well. […] After 3.5 hours, one drop of NucBlue Live ReadyProbes (Thermo Fisher Scientific) and 1 μM propidium iodide (Thermo Fisher Scientific) and returned to the incubator for 30 minutes. iPSNs were imaged in an environmentally controlled chamber with a Zeiss LSM 800 confocal microscope. […]

The subject of the next data set is stathmin-2 mRNA. In words: qRT-PCR for full length and truncated stathmin-2 mRNA. In kind it is cell-based, human. The note with it: C9orf72 and sALS iPSNs; day 46; 3 week exposure; GAPDH normalization. As for the experimental part:
as §1
RNA from iPSNs was isolated with a RNeasy kit (QIAGEN) according to manufacturer protocol. RNA concentrations were determined with a NanoDrop 1000 spectrophotometer (Thermo Fisher Scientific). For CHMP7 ASO experiments, RNA was isolated on day 46 of differentiation following 3 weeks exposure to 5 μM CHMP7 ASO2 or scrambled control ASO. For CHMP7 overexpression experiments, RNA was isolated on day 32 of differentiation (2 weeks after plasmid nucleofection). […]
For orientation: Real-time PCR tracks product formation cycle by cycle.

Data set [2] addresses T1, XPO1 (Homo sapiens, UniProt O14980). The note with it: non-neuronal cell lines (ref 24); cited from earlier work.
Target sequence in this assay (O14980 whole entry, species assumed): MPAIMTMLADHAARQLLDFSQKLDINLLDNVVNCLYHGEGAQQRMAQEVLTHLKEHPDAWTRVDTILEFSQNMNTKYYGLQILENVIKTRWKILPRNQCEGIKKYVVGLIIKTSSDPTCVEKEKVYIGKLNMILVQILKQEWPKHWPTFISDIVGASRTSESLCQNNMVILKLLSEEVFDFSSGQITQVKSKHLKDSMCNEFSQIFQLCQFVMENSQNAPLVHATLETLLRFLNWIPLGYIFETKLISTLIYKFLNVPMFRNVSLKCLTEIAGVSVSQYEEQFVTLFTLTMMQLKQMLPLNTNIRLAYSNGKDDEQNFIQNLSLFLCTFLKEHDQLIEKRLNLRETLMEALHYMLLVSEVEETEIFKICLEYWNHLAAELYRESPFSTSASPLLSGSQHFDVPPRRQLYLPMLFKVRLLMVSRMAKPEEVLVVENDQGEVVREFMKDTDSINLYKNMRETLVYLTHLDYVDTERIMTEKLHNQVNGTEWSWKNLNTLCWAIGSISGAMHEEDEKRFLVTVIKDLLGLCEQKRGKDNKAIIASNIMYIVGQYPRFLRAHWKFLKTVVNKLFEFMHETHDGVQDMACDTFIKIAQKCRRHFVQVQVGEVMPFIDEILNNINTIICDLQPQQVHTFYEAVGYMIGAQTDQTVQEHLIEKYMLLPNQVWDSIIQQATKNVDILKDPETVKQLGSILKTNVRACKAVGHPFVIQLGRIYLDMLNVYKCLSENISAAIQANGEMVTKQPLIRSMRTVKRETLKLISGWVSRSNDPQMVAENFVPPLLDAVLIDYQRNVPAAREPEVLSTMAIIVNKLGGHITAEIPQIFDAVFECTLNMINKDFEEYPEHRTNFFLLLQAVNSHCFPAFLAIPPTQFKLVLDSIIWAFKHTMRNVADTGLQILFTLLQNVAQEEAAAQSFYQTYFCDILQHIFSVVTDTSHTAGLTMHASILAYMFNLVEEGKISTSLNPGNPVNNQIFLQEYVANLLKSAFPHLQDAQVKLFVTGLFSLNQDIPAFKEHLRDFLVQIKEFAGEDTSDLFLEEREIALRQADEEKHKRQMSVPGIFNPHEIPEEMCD
Data set [3] addresses T1, XPO1. In words: Nuclear/cytoplasmic fractionation and qRT-PCR of C9orf72 iPSNs following Leptomycin B treatment. In kind it is cell-based.
Target sequence in this assay (O14980 whole entry): as the sequence (O14980 whole entry, species assumed) above
Method: Ethanol was used as vehicle control. iPSNs were rinsed in 1×PBS and nuclear/cytoplasmic fractionation was performed with the NE-PER Nuclear and Cytoplasmic Extraction Kit (Thermo Fisher Scientific) according to manufacturer protocol. Following the addition of C2 buffer, 25 μL of sample was added to 25 μL 2× Laemmli buffer (BioRad) and set aside as protein input. An additional 25 μL was set aside on ice as RNA input. From each nuclear and cytoplasmic fraction obtained, 25 μL sample was added to 25 μL 2× Laemmli buffer for protein analysis. An additional 25 μL was added to 500 μL RLT buffer (QIAGEN) for RNA analysis. The remainder of each fraction was stored at −80° C. At the completion of the fractionation, 500 μL RLT buffer was added to the RNA input sample. RNA isolation, cDNA synthesis, and qRT-PCR were performed as described below. […] RNA from immunoprecipitated complexes or nuclear and cytoplasmic cellular fractions was isolated with a RNeasy kit (QIAGEN) according to manufacturer protocol. RNA concentrations were determined with a NanoDrop 1000 spectrophotometer (Thermo Fisher Scientific). […]
Data set [4] has as its target T1, XPO1. The experiment in a line: SIM of nuclei isolated from wildtype iPSNs following Leptomycin B treatment. In kind it is cell-based. The note with it: 10 nM, ~18 hours.
Target sequence in this assay (O14980 whole entry): as the sequence (O14980 whole entry, species assumed) above
Method: Leptomycin B and ASO Treatment of iPSC Derived Neurons Leptomycin B: On day 18 of differentiation, 10 nM Leptomycin B (LMB, Cayman Chemicals) was added to the culture media and iPSNs were returned to the incubator for ˜18 hours before downstream analyses were conducted. Ethanol was used as vehicle control. Nuclei were isolated from iPSNs and postmortem human brain and spinal cord tissue using the Nuclei Pure Prep Nuclei Isolation Kit (Sigma Aldrich) following manufacturer protocol as previously described (13). Briefly, iPSN lysates were prepared by rinsing iPSNs with 1×PBS, adding mL supplied lysis buffer supplemented with DTT and Triton X-100 directly to each well, and harvesting iPSNs with a cell scraper. […] All lysates were transferred to a 50 mL conical tube and vortexed. Sucrose gradients were assembled following manufacturer protocol. A 1.85 M sucrose gradient was used to enrich for neuronal nuclei. Samples were centrifuged at 15,600 rpm and 4° C. using a Swi32T swinging bucket rotor and Beckman ultracentrifuge (Beckman Coulter) for 45 minutes. The supernatant was discarded, and the remaining nuclei pellet was resuspended in 1 mL of supplied nuclei storage buffer to wash the nuclei of any remaining sucrose. Resuspended nuclei were centrifuged at 2500 rpm and 4° C. for 5 minutes. The supernatant was once again discarded, and the resulting nuclei pellet was vortexed in 1 mL of supplied nuclei storage buffer to resuspend for downstream imaging analysis. […] Nuclei staining and super resolution imaging was performed as previously described (6). Following nuclei isolation, 10-50 μL of final nuclei/storage buffer suspension was centrifuged onto collagen coated (1 mg/mL; Advanced Biomatrix) slides with a CytoSpin 4 centrifuge (Thermo Fisher Scientific). Nuclei were immediately fixed with 4% PFA for 5 minutes, washed with 1×PBS 3×10 minutes and permeabilized with 1×PBST containing 0.1% Triton X-100 for 15 minutes. Nuclei were then blocked with 10% normal goat serum diluted in 1×PBS for 1 hour at room temperature and incubated in primary antibody diluted in block (10% normal goat serum in 1×PBS) overnight at 4° C. […] After 16-18 hours, nuclei were washed with 1×PBS 3×10 minutes, incubated in secondary antibody diluted in block (10% normal goat serum in 1×PBS) for 1 hour at room temperature (See Table B for antibody information). Nuclei were washed with 1×PBS 3×10 minutes and cover slipped using Prolong Gold Antifade Reagent (Invitrogen) and 18 mm×18 mm 1.5 high tolerance coverslips (MatTek). NeuN or GFP positive nuclei (see Description of the Figures) were identified via microscope eye pieces. A single z section ˜110 nm thick was acquired by widefield imaging to confirm NeuN or GFP positivity. The immunostained Nup or ESCRT-III protein was subsequently imaged by super resolution structured illumination microscopy (SIM) using a Zeiss ELYRA 51. For each image, 5 grid rotations and optimal z sectioning parameters were employed. Following image acquisition, SIM images were reconstructed using default SIM processing parameters with Zeiss Zen Black 2.3 SP1 software. Automated nucleoporin spot and volume analysis was conducted as previously described (6, 26) using Imaris version 9.2.0 (Bitplane) and the 3D suite plugin in FIJI version 1.52p. Nucleoporin spots were counted using automated spot detection. […] The total number of nucleoporin spots was determined using a 3D-rendering of segmented SIM images comprising the entire depth of each nucleus.
Data set [5] concerns the target T1, XPO1. In words: Nuclear/cytoplasmic fractionation and western blot of iPSNs following Leptomycin B treatment. It is filed as cell-based. As to conditions: iPSNs (FIGS. 12A-12C). In general terms: Immunoblotting shows a protein as a band on a membrane.
Target sequence in this assay (O14980 whole entry): as the sequence (O14980 whole entry, species assumed) above
Method: Leptomycin B and ASO Treatment of iPSC Derived Neurons Leptomycin B: On day 18 of differentiation, 10 nM Leptomycin B (LMB, Cayman Chemicals) was added to the culture media and iPSNs were returned to the incubator for ˜18 hours before downstream analyses were conducted. Ethanol was used as vehicle control. iPSNs were rinsed in 1×PBS and nuclear/cytoplasmic fractionation was performed with the NE-PER Nuclear and Cytoplasmic Extraction Kit (Thermo Fisher Scientific) according to manufacturer protocol. Following the addition of C2 buffer, 25 μL of sample was added to 25 μL 2× Laemmli buffer (BioRad) and set aside as protein input. An additional 25 μL was set aside on ice as RNA input. From each nuclear and cytoplasmic fraction obtained, 25 μL sample was added to 25 μL 2× Laemmli buffer for protein analysis. An additional 25 μL was added to 500 μL RLT buffer (QIAGEN) for RNA analysis. The remainder of each fraction was stored at −80° C. At the completion of the fractionation, 500 μL RLT buffer was added to the RNA input sample. RNA isolation, cDNA synthesis, and qRT-PCR were performed as described below. Western blot analysis was conducted as described below. Equal volume of each sample (10 μL) was loaded in acrylamide gels. […] The supernatant was transferred to a new Eppendorf tube and protein concentrations were determined using the BCA protein estimation assay kit (Thermo Fisher Scientific). […]
Where [6] appears, read: C9orf72 and sALS iPSNs, day 40, compared to scrambled control ASO.
Setting [7] is: C9orf72 iPSNs, compared to scrambled control ASO.

Where two headings read alike, the source gives them in different places.

Consider “TGTTACCCTCAGATACCGCC (listed as DNA, chemistry not given here) [CHMP7 ASO 2, CHMP7 targeting ASO provided by Ionis Pharmaceuticals; targets human CHMP7 pre-mRNA, RNase H based degradation]”, for which, in data set [1] (setting [6]), the “Nup50 expression in iPSN nuclei and NPCs” value was “significantly restored”; the “Nup133 expression in iPSN nuclei and NPCs” value is on record as “significantly restored”; the “POM121 expression in iPSN nuclei and NPCs” value is listed as “significantly restored”. Also, in data set [1] (setting [7]), the “Nup50 expression in iPSN nuclei and NPCs” value was “significantly restored”; the “Nup133 expression in iPSN nuclei and NPCs” value is reported as “significantly restored”; the “POM121 expression in iPSN nuclei and NPCs” value was “significantly restored”. Moreover, the “nuclear TDP-43 localization” value with TDP-43 is “restored”. Further, in the data set on iPSNs (C9orf72 and sALS iPSNs, two week treatment (FIG. 20I)), the “sensitivity to glutamate induced excitotoxicity as measured by propidium iodide (PI) incorporation” value is “significantly decreased”. The “sensitivity to glutamate induced excitotoxicity as measured by propidium iodide (PI) incorporation” value in the data set on iPSNs (C9orf72 iPSNs, 2-week exposure to 5 μM ASO, 10 μM glutamate 4 hours (FIG. 4H)) is reported as “mitigates”. For the same molecule, in the data set with stathmin-2 mRNA, the “full length stathmin-2 mRNA levels” value is given as “restored to levels observed in control iPSNs” and the “truncated stathmin-2 mRNA levels” value is “restored to levels observed in control iPSNs”.
For `CCC(=C/[C@H](C)C/C=C/C(C)=C/[C@@H](C)C(=O)[C@@H](C)[C@H](O)[C@@H](C)C/C(C)=C/C(=O)O)/C=C/[C@@H]1OC(=O)C=C[C@@H]1C` [LMB, Leptomycin B], on XPO1 [2], the “nuclear levels of DDX3X” value is recorded as “increases” and the “nuclear levels of RanBP1” value is on record as “increases”. The “presence of G4C2 repeat RNA in the nuclear fraction” value at XPO1 [3] (C9orf72 iPSNs (FIG. 12D)) is reported as “strongly increases”. The “presence of G2C4 repeat RNA in the nuclear fraction” value at XPO1 [3] (C9orf72 iPSNs (FIG. 12E)) is given as “strongly increases”. Besides, on XPO1 [4], the “CHMP7 in the nucleus” value was “significant increase”, the “Nup50 immunoreactivity in nuclei” value is recorded as “reduction”, the “Nup133 immunoreactivity in nuclei” value is given as “reduction” and the “POM121 immunoreactivity in nuclei” value was “reduction”. Besides, the “VPS4 immunoreactivity in nuclei” value at XPO1 [4] is “increase”. Moreover, on XPO1 [5], the “nuclear levels of DDX3X” value is reported as “increases” and the “nuclear levels of RanBP1” value is given as “increases”.

The record behind these values is patent US20230407298A1, “METHODS FOR INHIBITING CHMP7 EXPRESSION IN NEURONAL CELLS FOR THE TREATMENT OF NEURODEGENERATIVE DISORDERS” (THE JOHNS HOPKINS UNIVERSITY, priority 2020, published 2023).
